Data from PubChem BioAssay (NCI).
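Interpolation was linear, between the two tested concentrations surrounding the appropriate level; five concentrations were tested over 48 hours in 96-well plates. GI50 marks 50% less growth. At the TGI there is no net growth.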

Assays:
Experiment in all cases: inhibition of tumour cell growth, NCI panel, 48 h
786-0 renal = test system: 786-0 renal
A498 renal = test system: A498 renal
HCC-2998 colon = test system: HCC-2998 colon
HOP-62 NSCLC = test system: HOP-62 NSCLC
KM20L2 colon = test system: KM20L2 colon
LXFL 529 NSCLC = test system: LXFL 529 NSCLC
M19-MEL melanoma = test system: M19-MEL melanoma
MALME-3M melanoma = test system: MALME-3M melanoma
SF-268 CNS = test system: SF-268 CNS

For `COc1cc(-c2cc(CCC(=O)Nc3ccccc3[N+](=O)[O-])n(-c3ccc([N+](=O)[O-])cc3[N+](=O)[O-])n2)ccc1O`, the GI50 (786-0 renal) was > 100 µM, the TGI (786-0 renal) was > 100 µM and the GI50 (A498 renal) was > 100 µM. For the same compound, the TGI (A498 renal) was > 100 µM, the GI50 (HCC-2998 colon) was > 100 µM and the TGI (HCC-2998 colon) was > 100 µM. For the same compound, the GI50 (HOP-62 NSCLC) was > 100 µM, the TGI (HOP-62 NSCLC) was > 100 µM and the GI50 (KM20L2 colon) was > 100 µM. For the same compound, the TGI (KM20L2 colon) was > 100 µM, the GI50 (LXFL 529 NSCLC) was > 10 µM and the TGI (LXFL 529 NSCLC) was > 100 µM. For the same compound, the GI50 (M19-MEL melanoma) was > 100 µM, the TGI (M19-MEL melanoma) was > 100 µM and the GI50 (MALME-3M melanoma) was > 100 µM. The TGI (MALME-3M melanoma) was > 100 µM, the GI50 (SF-268 CNS) was > 100 µM and the TGI (SF-268 CNS) was > 100 µM.
`CC1=C(C(=O)Nc2ccccc2C)C(c2ccc(C3C(C(=O)Nc4ccccc4C)=CNC=C3C(=O)Nc3ccccc3C)cc2)C(C(=O)Nc2ccccc2C)=C(C)N1` gave a TGI (786-0 renal) of 29.3 µM, a TGI (A498 renal) of 41.7 µM and a TGI (HCC-2998 colon) of 31.8 µM. It also gave a TGI (HOP-62 NSCLC) of 48.7 µM, a TGI (KM20L2 colon) of 28.6 µM and a TGI (LXFL 529 NSCLC) of 26.6 µM. For the same compound, the TGI (M19-MEL melanoma) was > 57.3 µM, the TGI (MALME-3M melanoma) was 38.9 µM and the TGI (SF-268 CNS) was 17.4 µM.
